Reference: US8044069B2, “Compounds as calcium channel blockers” (Abbott Laboratories, priority 2008, dated 2011)

Molecular target: human Cav2.2 (Homo sapiens, UniProt Q00975)
Experiment: Assessment of calcium channel activity using FLIPR (Ca2+ influx in IMR32 cells)
Format: cell-based
Details: IMR32 cells endogenously expressing human Cav2.2; 60 minute pre-incubation; 2 μM nifedipine; depolarized with 80 mM KCl, 5 mM CaCl2
Method in brief: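 IMR32 cells were dye-loaded and pre-incubated 60 min with compound (10 μM to 0.1 nM) in 1.3 mM CaCl2 plus 2 μM nifedipine to block L-type channels. Cells were then depolarized with 80 mM KCl while Ca2+ was raised to 5 mM, and FLIPR read the influx. IC50 came from a sigmoidal fit of % inhibition versus the no-inhibitor control.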

human Cav2.2, sequence (Q00975 whole entry): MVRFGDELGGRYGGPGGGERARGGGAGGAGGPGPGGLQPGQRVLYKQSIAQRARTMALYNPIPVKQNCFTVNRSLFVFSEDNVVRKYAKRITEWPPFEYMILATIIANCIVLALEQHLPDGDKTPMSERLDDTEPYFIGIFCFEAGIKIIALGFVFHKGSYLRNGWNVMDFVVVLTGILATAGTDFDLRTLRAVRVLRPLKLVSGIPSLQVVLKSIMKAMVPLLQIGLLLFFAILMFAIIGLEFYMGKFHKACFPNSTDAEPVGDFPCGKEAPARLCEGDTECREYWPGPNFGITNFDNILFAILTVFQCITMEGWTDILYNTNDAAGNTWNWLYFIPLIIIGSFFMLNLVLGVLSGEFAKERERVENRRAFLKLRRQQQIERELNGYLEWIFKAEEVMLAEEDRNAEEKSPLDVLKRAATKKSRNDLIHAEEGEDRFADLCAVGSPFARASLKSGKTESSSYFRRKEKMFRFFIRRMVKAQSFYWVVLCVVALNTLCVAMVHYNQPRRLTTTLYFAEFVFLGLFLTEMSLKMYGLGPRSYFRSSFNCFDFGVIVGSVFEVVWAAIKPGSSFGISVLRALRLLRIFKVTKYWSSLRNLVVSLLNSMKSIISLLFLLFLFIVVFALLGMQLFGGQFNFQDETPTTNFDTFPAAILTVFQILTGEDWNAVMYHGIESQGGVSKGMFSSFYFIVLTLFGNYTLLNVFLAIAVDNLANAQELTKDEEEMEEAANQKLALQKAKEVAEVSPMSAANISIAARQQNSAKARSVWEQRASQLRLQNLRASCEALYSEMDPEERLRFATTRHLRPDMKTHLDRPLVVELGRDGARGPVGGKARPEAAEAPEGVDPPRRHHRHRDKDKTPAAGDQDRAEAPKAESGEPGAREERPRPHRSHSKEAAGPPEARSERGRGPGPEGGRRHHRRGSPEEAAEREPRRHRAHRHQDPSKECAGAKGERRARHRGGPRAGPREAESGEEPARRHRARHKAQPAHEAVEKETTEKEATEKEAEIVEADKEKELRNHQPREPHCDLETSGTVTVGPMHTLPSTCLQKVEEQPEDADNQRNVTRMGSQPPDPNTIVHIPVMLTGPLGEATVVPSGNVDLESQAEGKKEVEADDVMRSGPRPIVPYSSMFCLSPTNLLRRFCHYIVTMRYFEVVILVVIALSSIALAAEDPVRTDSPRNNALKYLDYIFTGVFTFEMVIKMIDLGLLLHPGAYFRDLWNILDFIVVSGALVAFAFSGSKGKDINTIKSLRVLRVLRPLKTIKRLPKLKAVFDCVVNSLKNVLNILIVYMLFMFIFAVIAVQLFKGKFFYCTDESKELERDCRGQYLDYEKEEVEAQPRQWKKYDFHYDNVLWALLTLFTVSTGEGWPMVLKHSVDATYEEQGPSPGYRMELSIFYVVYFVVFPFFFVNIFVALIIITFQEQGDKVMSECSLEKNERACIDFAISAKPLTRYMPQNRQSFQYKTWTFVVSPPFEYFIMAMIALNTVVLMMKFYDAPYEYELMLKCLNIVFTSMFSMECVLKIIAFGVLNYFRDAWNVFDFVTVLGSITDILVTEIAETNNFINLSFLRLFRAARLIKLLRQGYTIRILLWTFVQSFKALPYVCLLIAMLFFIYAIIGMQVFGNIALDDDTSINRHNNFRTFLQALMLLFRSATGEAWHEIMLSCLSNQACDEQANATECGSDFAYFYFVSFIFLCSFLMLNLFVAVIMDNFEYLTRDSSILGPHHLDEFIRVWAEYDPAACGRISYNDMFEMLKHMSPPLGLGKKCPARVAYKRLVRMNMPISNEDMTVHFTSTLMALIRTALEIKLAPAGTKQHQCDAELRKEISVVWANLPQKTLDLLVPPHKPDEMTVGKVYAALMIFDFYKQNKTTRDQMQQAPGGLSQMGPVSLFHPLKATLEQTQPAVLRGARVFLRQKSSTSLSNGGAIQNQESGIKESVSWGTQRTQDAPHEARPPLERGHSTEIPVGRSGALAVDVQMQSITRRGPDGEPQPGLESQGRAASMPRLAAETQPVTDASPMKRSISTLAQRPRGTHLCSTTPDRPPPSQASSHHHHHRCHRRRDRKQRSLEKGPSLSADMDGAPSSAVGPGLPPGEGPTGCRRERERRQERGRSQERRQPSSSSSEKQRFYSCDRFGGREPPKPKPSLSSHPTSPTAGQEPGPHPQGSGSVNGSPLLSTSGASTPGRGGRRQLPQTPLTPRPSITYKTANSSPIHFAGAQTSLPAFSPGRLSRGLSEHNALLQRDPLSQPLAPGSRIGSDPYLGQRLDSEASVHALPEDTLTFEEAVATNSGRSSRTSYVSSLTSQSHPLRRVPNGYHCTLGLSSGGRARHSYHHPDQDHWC
human Cav2.2, sequence (P54289 25-951 partner limits assumed): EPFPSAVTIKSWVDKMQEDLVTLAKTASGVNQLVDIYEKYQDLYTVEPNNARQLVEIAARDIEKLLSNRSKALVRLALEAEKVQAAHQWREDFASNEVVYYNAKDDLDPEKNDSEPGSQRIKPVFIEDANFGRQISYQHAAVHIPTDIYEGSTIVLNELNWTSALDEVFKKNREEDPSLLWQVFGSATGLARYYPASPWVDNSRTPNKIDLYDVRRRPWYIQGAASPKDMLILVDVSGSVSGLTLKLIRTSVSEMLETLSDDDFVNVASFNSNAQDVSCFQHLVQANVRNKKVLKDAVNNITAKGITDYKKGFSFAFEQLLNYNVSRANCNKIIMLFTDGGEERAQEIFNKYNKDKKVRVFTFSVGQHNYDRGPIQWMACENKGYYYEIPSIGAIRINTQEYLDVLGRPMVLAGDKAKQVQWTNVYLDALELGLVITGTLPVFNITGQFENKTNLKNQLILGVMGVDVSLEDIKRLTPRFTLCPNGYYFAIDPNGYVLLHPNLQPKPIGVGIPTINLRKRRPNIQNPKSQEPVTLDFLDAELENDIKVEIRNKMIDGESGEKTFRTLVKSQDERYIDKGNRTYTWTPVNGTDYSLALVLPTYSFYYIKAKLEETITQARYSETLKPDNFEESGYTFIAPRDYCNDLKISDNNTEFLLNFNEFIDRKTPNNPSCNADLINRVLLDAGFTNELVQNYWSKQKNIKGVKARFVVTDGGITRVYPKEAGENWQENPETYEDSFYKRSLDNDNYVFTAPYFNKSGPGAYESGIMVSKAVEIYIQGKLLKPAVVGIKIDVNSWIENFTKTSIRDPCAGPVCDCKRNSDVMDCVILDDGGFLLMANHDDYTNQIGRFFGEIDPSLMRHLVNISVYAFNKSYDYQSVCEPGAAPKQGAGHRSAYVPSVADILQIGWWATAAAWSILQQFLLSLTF
human Cav2.2, sequence (P54289 952-1103 partner limits assumed): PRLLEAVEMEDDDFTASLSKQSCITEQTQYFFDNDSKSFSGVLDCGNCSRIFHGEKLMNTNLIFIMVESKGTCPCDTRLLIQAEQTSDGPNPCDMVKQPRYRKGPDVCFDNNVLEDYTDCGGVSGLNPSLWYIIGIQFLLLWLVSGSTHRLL
human Cav2.2, sequence (P54284 whole entry partner): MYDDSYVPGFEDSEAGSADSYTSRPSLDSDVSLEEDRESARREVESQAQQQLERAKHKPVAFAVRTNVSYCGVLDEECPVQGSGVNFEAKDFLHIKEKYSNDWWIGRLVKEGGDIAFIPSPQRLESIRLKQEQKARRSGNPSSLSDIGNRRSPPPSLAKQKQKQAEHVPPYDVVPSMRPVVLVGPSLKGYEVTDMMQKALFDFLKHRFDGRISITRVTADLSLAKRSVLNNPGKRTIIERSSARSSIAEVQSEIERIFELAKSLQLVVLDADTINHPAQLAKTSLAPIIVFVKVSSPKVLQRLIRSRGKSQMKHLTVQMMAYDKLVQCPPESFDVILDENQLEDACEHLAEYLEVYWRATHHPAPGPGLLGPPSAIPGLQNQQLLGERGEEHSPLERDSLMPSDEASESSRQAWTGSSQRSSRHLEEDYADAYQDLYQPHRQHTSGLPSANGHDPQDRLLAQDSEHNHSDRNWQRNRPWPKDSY

IC50	SMILES
2290 nM	O=C(CN1CCC(c2ccccc2)(c2ccccc2)C1=O)N1CCC[C@@H]2CN(C(c3ccccc3)c3ccccc3)C[C@@H]21 [Example 51, 1-{2-[(4aR,7aR)-6-benzhydryloctahydro-1H-pyrrolo[3,4-b]pyridin-1-yl]-2-oxoethyl}-3,3-diphenylpyrrolidin-2-one]
3030 nM	O=C(CN1CCC(c2ccccc2)(c2ccccc2)C1=O)NC1CCCc2ccccc21 (stereo not drawn) [Example 27, 2-(2-oxo-3,3-diphenylpyrrolidin-1-yl)-N-1,2,3,4-tetrahydronaphthalen-1-ylacetamide]
3960 nM	O=C(CN1CCC(c2ccccc2)(c2ccccc2)C1=O)NC1Cc2ccccc2C1 [Example 22, N-2,3-dihydro-1H-inden-2-yl-2-(2-oxo-3,3-diphenylpyrrolidin-1-yl)acetamide]
1370 nM	O=C(CN1CCCC(c2ccccc2)(c2ccccc2)C1=O)N1CCN(C(=O)OCc2ccccc2)CC1 [Example 182, benzyl 4-[(2-oxo-3,3-diphenylpiperidin-1-yl)acetyl]piperazine-1-carboxylate]
1910 nM	O=C1N(Cc2nc(-c3cnccn3)no2)CCC1(c1ccc(F)cc1)c1ccc(F)cc1 [Example 232, 3,3-bis(4-fluorophenyl)-1-[(3-pyrazin-2-yl-1,2,4-oxadiazol-5-yl)methyl]pyrrolidin-2-one]
3180 nM	N#Cc1ccc(-c2noc(CN3CCC(c4ccc(F)cc4)(c4ccc(F)cc4)C3=O)n2)cc1 [Example 235, 4-(5-{[3,3-bis(4-fluorophenyl)-2-oxopyrrolidin-1-yl]methyl}-1,2,4-oxadiazol-3-yl)benzonitrile]
2780 nM	O=C1N(Cc2nc(-c3ccc(Cl)nc3)no2)CCC1(c1ccccc1)c1ccccc1 [Example 214, 1-{[3-(6-chloropyridin-3-yl)-1,2,4-oxadiazol-5-yl]methyl}-3,3-diphenylpyrrolidin-2-one]
1760 nM	COc1cc(CN2CCN(CCN3CCC(c4ccc(F)cc4)(c4ccc(F)cc4)C3=O)CC2)cc(OC)c1OC [Example 109, 3,3-bis(4-fluorophenyl)-1-{2-[4-(3,4,5-trimethoxybenzyl)piperazin-1-yl]ethyl}pyrrolidin-2-one]
1910 nM	O=C(CN1CCC(c2ccccc2)(c2ccccc2)C1=O)N1CCC(=C(c2ccccc2)c2ccccc2)CC1 [Example 31, 1-{2-[4-(diphenylmethylene)piperidin-1-yl]-2-oxoethyl}-3,3-diphenylpyrrolidin-2-one]
> 30000 nM	CC(C)(C)OC(=O)Nc1ccc(-c2noc(CN3CCC(c4ccccc4)(c4ccccc4)C3=O)n2)cn1 [Example 231, tert-butyl 5-{5-[(2-oxo-3,3-diphenylpyrrolidin-1-yl)methyl]-1,2,4-oxadiazol-3-yl}pyridin-2-ylcarbamate]
3790 nM	O=C(CN1CCCC(c2ccccc2)(c2ccccc2)C1=O)N1CCC(=NOCc2ccccc2)CC1 [Example 163, 1-(2-{4-[(benzyloxy)imino]piperidin-1-yl}-2-oxoethyl)-3,3-diphenylpiperidin-2-one]
1140 nM	O=C(CN1CCC(c2ccccc2)(c2ccccc2)C1=O)N1CCN(Cc2cccc(C(F)(F)F)c2)C(=O)C1 [Example 29, 4-[(2-oxo-3,3-diphenylpyrrolidin-1-yl)acetyl]-1-[3-(trifluoromethyl)benzyl]piperazin-2-one]
8710 nM	O=C1N(Cc2nc(-c3ccc(C(F)(F)F)cc3)no2)CCC1(c1ccccc1)c1ccccc1 [Example 62, 3,3-diphenyl-1-({3-[4-(trifluoromethyl)phenyl]-1,2,4-oxadiazol-5-yl}methyl)pyrrolidin-2-one]
410 nM	O=C(CN1CCCC(c2ccccc2)(c2ccccc2)C1=O)NC1CCN(C(c2ccccc2)c2ccccc2)CC1 [Example 85, N-(1-benzhydrylpiperidin-4-yl)-2-(2-oxo-3,3-diphenylpiperidin-1-yl)acetamide]
8900 nM	O=C(CN1CCCC(c2ccccc2)C1=O)N1CCc2ccc(C(F)(F)F)cc2C1 (stereo not drawn) [Example 96, 1-{2-oxo-2-[7-(trifluoromethyl)-3,4-dihydroisoquinolin-2(1H)-yl]ethyl}-3-phenylpiperidin-2-one]
